Laboratory results from US20190008843A1, “PHARMACEUTICAL COMPOSITIONS FOR ON DEMAND ANTICOAGULANT THERAPY” (Kenox Pharmaceuticals Inc, priority 2016, published 2019).

Legend:
[1] = pH 4.5-7.4; cited from earlier work
[2] = Aqueous solubility of Dabigatran etexilate in presence of solubility enhancers; type: physicochemical
Description: However, based on data presented in Table I, TPGS (tocopherol polyethylene glycol succinate) would be expected to be a poor solubilizer by one skilled in the art. […] The present invention provides pharmaceutical compositions and method of administration of Dabigatran etexilate to overcome the clinical limitations posed by gastrointestinal delivery, specifically by increasing the solubility of Dabigatran etexilate, while maintaining it in its most bioavailable form to ascertain an effective transport through the oral mucous membranes so it effectively can exert its anticoagulant activity. We have observed that the use of pharmaceutical solubilizers such as d-alpha Tocopherol polyethylene glycol succinate (TPGS) and Polysorbate 80 improved the solubility up to 5-10 mg/mL. Without being bound to any specific mechanism, the enhanced solubility and dissolution of Dabigatran etexilate, when co-formulated with TPGS may likely be due to ability of TPGS to inhibit precipitation and maintain supersaturation of dabigatran free base in the formulation microenvironment during dissolution. Pharmaceutical co-solvents such as Polyethylene Glycol 400 (PEG 400) and Glycerol improved the solubility compared to water alone, but the solubility was still<0.1 mg/mL.

[3] = Percent of Dabigatran etexilate remaining after exposure to aqueous solutions; type: physicochemical; settings: 15 minutes

Dabigatran etexilate
Solubility under physiological conditions relevant to oral absorption [1]: virtually insoluble | Solubility (mg/ml) 25° C. ([2]; 2% w/v Polysorbate 80 in 0.01M histidine buffer, pH 7.4, 25° C.): <0.1 mg/mL | Solubility (mg/ml) 25° C. ([2]; 5% w/v Polysorbate 80 in 0.01M histidine buffer, pH 7.5, 25° C.): <0.1 mg/mL | Solubility (mg/ml) 25° C. ([2]; 5% w/v TPGS in 0.01M histidine buffer, pH 7.6, 25° C.): 0.37 mg/mL | Solubility (mg/ml) 25° C. ([2]; 10% w/v Glycerol in 0.01M histidine buffer, pH 7.6, 25° C.): <0.1 mg/mL | Solubility (mg/ml) 25° C. ([2]; 10% w/v PEG 400 in 0.01M histidine buffer, pH 7.5, 25° C.): <0.1 mg/mL | Solubility with pharmaceutical co-solvents ([2]; Polyethylene Glycol 400 (PEG 400) and Glycerol): < 100 µg/mL | Solubility (mg/ml) 25° C. ([2]; Water, pH 6.5, 25° C.): <0.001 mg/mL | % of Initial (23° C.) ([3]; Water): 21.6% | % of Initial (40° C.) ([3]; Water): 21.0% | % of Initial (23° C.) ([3]; pH 2 acetate buffer (0.1M)): 0.2% | % of Initial (40° C.) ([3]; pH 2 acetate buffer (0.1M)): 0.2% | % of Initial (23° C.) ([3]; pH 3 acetate buffer (0.1M)): 22.4% | % of Initial (40° C.) ([3]; pH 3 acetate buffer (0.1M)): 22.2% | % of Initial (23° C.) ([3]; pH 4 phosphate buffer (0.1M)): 59.5% | % of Initial (40° C.) ([3]; pH 4 phosphate buffer (0.1M)): 55.7%
